Results as given in publication PMC5951806, “Rapid labelling and covalent inhibition of intracellular native proteins using ligand-directed N-acyl-N-alkyl sulfonamide” (Nature Communications, 2018).

Columns and labels:
Assay in all cases: TMT LC-MSMS of 11-labelled proteins
Format in all cases: cell-based
[1] = biological target: 60 kDa heat shock protein, mitochondrial (HSPD1) (Homo sapiens, UniProt P10809)
Desmoplakin (DSP) = Desmoplakin (DSP) (Homo sapiens, UniProt P15924)
[2] = biological target: L-lactate dehydrogenase B chain (LDHB) (Homo sapiens, UniProt P07195)
Sequence of L-lactate dehydrogenase B chain (LDHB) (P07195 whole entry): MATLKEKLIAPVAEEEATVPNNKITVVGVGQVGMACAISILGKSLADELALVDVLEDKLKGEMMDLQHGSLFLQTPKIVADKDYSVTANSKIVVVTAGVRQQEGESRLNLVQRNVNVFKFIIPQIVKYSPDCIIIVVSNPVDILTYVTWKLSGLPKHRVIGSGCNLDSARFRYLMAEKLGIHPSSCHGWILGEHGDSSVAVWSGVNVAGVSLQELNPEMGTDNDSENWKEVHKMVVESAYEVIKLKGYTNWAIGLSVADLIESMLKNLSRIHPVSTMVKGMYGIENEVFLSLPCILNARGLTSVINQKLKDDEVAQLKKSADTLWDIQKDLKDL

[3] = biological target: Pyruvate kinase PKM (PKM) (Homo sapiens, UniProt P14618)
Sequence of Pyruvate kinase PKM (PKM) (P14618 whole entry): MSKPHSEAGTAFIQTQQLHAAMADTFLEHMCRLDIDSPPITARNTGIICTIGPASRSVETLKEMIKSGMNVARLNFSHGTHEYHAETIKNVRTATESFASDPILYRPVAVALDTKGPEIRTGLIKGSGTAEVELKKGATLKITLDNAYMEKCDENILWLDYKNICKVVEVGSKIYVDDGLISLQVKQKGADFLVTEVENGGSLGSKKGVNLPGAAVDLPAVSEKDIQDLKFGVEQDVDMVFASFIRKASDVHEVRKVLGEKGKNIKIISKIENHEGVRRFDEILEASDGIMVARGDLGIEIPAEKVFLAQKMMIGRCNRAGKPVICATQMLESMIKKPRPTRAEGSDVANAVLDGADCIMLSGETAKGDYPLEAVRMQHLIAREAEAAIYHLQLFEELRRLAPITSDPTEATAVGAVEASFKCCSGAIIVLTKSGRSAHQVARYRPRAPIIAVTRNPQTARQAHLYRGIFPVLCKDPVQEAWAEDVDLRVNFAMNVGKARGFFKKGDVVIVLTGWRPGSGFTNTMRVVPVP

[4] = sheet Merged, SKBR3 cells, 11 0.5 µM 3 h vs DMSO
[5] = sheet Merged, SKBR3 cells, 11 0.5 µM 3 h vs with PU-H71 10 µM
[6] = sheet Exp1, SKBR3 cells, 11 0.5 µM 3 h vs DMSO
[7] = sheet Exp1, SKBR3 cells, 11 0.5 µM 3 h vs with PU-H71 10 µM

Sequence of Desmoplakin (DSP) (P15924 whole entry): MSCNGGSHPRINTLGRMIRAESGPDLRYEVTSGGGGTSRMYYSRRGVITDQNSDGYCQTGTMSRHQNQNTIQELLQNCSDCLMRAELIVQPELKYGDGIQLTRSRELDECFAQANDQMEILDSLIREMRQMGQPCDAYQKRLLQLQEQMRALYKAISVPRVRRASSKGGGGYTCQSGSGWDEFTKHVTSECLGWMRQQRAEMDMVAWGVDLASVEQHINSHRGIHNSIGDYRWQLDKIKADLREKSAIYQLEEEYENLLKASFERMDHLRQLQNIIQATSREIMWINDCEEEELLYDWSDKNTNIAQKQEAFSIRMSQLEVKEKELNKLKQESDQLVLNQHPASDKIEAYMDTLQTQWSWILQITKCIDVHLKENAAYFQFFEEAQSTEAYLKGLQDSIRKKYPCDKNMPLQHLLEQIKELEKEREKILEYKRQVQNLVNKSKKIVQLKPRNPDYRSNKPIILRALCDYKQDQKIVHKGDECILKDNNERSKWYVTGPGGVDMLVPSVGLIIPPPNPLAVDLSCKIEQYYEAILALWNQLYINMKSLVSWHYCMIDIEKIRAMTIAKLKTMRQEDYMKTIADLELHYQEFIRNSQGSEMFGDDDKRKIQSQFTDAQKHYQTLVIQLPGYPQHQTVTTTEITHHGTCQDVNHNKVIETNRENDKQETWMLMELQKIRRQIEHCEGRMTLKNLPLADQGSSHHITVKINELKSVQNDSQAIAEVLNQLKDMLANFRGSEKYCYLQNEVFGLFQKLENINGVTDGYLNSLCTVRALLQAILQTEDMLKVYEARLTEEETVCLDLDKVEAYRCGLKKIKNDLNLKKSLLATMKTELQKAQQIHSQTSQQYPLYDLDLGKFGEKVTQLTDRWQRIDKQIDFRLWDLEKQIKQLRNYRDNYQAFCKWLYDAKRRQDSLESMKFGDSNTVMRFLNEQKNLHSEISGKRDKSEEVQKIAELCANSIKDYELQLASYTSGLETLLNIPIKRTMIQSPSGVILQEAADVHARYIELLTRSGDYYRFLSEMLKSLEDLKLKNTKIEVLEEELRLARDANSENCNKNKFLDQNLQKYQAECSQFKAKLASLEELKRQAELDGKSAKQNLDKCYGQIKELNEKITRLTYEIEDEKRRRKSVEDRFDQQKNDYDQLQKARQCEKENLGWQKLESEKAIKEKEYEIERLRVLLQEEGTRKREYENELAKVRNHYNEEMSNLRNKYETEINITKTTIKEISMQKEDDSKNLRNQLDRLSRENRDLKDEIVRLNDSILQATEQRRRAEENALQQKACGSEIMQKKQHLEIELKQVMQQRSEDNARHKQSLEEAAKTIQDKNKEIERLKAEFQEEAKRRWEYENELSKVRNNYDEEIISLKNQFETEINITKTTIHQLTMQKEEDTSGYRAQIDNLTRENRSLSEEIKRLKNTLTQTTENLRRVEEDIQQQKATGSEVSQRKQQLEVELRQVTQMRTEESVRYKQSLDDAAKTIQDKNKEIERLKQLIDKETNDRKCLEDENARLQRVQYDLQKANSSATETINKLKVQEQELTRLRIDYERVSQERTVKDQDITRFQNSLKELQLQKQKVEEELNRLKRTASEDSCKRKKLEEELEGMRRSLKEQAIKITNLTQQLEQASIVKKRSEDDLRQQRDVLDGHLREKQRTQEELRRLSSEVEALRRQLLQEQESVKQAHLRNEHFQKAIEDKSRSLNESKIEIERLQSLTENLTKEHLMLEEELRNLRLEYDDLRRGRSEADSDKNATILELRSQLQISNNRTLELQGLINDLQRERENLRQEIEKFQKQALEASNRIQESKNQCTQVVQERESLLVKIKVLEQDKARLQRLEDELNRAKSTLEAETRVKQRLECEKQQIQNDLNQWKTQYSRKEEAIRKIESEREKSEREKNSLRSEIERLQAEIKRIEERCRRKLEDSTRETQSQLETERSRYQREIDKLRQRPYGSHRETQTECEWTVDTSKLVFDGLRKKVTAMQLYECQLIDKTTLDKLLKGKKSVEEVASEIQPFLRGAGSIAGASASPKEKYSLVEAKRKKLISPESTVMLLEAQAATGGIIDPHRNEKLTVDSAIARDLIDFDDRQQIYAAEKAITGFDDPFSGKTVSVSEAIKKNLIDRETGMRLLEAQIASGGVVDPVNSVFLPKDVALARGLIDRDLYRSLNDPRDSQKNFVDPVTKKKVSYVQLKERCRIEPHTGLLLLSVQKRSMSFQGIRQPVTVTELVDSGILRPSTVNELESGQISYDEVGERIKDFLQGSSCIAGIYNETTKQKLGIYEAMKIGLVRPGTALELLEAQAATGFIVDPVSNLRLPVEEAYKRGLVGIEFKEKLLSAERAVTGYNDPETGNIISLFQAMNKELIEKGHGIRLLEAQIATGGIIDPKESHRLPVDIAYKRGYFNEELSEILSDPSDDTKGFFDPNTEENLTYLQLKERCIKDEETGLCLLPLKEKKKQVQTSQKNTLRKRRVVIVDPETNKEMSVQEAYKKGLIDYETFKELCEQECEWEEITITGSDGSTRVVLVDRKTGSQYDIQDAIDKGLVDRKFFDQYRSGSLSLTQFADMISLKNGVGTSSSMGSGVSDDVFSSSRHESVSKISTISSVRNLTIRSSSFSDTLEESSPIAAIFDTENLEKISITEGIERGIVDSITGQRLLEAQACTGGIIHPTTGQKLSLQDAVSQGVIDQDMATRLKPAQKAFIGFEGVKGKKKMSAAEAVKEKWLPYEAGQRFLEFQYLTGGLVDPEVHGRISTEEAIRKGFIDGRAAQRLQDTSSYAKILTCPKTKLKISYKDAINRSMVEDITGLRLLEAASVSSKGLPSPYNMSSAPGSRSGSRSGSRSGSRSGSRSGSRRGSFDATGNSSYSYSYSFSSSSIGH
Sequence of 60 kDa heat shock protein, mitochondrial (HSPD1) (P10809 27-573): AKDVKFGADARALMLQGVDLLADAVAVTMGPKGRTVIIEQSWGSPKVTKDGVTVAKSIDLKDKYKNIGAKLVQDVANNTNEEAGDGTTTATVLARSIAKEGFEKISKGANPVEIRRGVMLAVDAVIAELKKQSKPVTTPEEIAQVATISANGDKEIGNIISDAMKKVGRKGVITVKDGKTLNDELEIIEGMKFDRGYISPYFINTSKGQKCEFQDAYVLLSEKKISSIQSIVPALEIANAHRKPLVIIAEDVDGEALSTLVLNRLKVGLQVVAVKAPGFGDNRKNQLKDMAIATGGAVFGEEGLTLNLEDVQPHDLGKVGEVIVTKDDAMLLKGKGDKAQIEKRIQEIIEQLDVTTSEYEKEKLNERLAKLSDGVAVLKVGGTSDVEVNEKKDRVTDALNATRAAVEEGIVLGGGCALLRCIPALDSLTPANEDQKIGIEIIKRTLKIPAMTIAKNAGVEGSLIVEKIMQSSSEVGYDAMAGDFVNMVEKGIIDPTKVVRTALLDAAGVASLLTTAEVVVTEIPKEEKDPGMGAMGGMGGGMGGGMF

Abundance Ratio: (11) / (11 with PU-H71) ([1]; Exp3, HSPD1): 0.857
Abundance Ratio: (11) / (DMSO) ([1]; Exp3, HSPD1): 2.057
Abundances (Grouped): 11 ([1]; Exp3, HSPD1): 57.6
Abundances (Grouped): 11 with PU-H71 ([1]; Exp3, HSPD1): 67.2
Abundance Ratio: (11) / (11 with PU-H71) ([1]; sheet Exp2, HSPD1): 1.035
Abundance Ratio: (11) / (DMSO) ([1]; sheet Exp2, HSPD1): 2.527
Abundances (Grouped): 11 ([1]; sheet Exp2, HSPD1): 61.4
Abundances (Grouped): 11 with PU-H71 ([1]; sheet Exp2, HSPD1): 59.3
Abundance Ratio: (11) / (DMSO) [1, 4]: 2.28
Abundance Ratio: (11) / (11 with PU-H71) [1, 5]: 0.942
Abundance Ratio: (11) / (11 with PU-H71) (Desmoplakin (DSP); Exp3, DSP): 0.922
Abundance Ratio: (11) / (DMSO) (Desmoplakin (DSP); Exp3, DSP): 1.358
Abundances (Grouped): 11 (Desmoplakin (DSP); Exp3, DSP): 44.8
Abundances (Grouped): 11 with PU-H71 (Desmoplakin (DSP); Exp3, DSP): 48.6
Abundance Ratio: (11) / (11 with PU-H71) (Desmoplakin (DSP); sheet Exp2, DSP): 1.054
Abundance Ratio: (11) / (DMSO) (Desmoplakin (DSP); sheet Exp2, DSP): 1.067
Abundances (Grouped): 11 (Desmoplakin (DSP); sheet Exp2, DSP): 43.1
Abundances (Grouped): 11 with PU-H71 (Desmoplakin (DSP); sheet Exp2, DSP): 40.9
Abundance Ratio: (11) / (DMSO) (Desmoplakin (DSP); [4]): 1.203
Abundance Ratio: (11) / (11 with PU-H71) (Desmoplakin (DSP); [5]): 0.986
Abundance Ratio: (11) / (DMSO) [2, 6]: 3.283
Abundance Ratio: (11) / (11 with PU-H71) [2, 7]: 0.769
Abundance Ratio: (11) / (11 with PU-H71) ([2]; sheet Exp2, LDHB): 0.731
Abundance Ratio: (11) / (DMSO) ([2]; sheet Exp2, LDHB): 3.172
Abundances (Grouped): 11 ([2]; sheet Exp2, LDHB): 66.3
Abundances (Grouped): 11 with PU-H71 ([2]; sheet Exp2, LDHB, with PU-H71): 90.7
Abundance Ratio: (11) / (DMSO) [2, 4]: 3.227
Abundance Ratio: (11) / (11 with PU-H71) [2, 5]: 0.75
Abundance Ratio: (11) / (11 with PU-H71) ([3]; Exp3, PKM): 1.148
Abundance Ratio: (11) / (DMSO) ([3]; Exp3, PKM): 2.441
Abundances (Grouped): 11 ([3]; Exp3, PKM): 100.1
Abundances (Grouped): 11 with PU-H71 ([3]; Exp3, PKM): 87.2
Abundance Ratio: (11) / (DMSO) [3, 6]: 3.506
Abundance Ratio: (11) / (11 with PU-H71) [3, 7]: 0.917
Abundance Ratio: (11) / (11 with PU-H71) ([3]; sheet Exp2, PKM): 0.916
Abundance Ratio: (11) / (DMSO) ([3]; sheet Exp2, PKM): 2.005
Abundances (Grouped): 11 ([3]; sheet Exp2, PKM): 121.5
Abundances (Grouped): 11 with PU-H71 ([3]; sheet Exp2, PKM): 132.6
Abundance Ratio: (11) / (DMSO) [3, 4]: 3.4
Abundance Ratio: (11) / (11 with PU-H71) [3, 5]: 0.922
Compound: CC(=O)Oc1ccc2c(c1)Oc1cc(OC(C)=O)ccc1C21OC(=O)c2cc(C(=O)NCCOCCOCCNC(=O)CCCC(=O)N(CC#N)S(=O)(=O)c3ccc(C(=O)NCCCn4c(Sc5cc6c(cc5I)OCO6)nc5c(N)ncnc54)cc3)ccc21 [compound 11]
